{
  "source": "patent US20230212222A1",
  "about": "(ANYGEN CO., LTD., priority 2020, published 2023)",
  "key": {"Irs2 and Ins2": {"test_system": "Irs2 and Ins2", "experiment": "mRNA expression levels of Irs2 and Ins2 by RT-PCR", "type": "cell-based", "description": "The mRNA expression levels of Irs2 and Ins2, which are important factors for proliferation and differentiation of pancreatic beta cells, were analyzed through RT-PCR (FIG. 77)."}, "3T3-L1 cells": {"test_system": "3T3-L1 cells", "experiment": "lipolytic ability (secreted glycerol) in 3T3-L1 cells", "type": "cell-based", "description": "In addition, lipolytic ability according to the HKFY-34 treatment by concentration (100 nM, 500 nM, […] (FIG. 84). When the signal of lipolysis is transmitted, lipid droplet glycerol and free fatty acid in adipocytes are secreted as final products and come out of the cell. At this time, the degree of lipolysis can be confirmed by quantifying the secreted glycerol. Isoproterenol, a positive control group, is an agonist of β-adrenergic receptors and mainly promotes lipolytic ability in adipocytes."}, "[1]": {"test_system": "pERK and pPKA in 3T3-L1 cells", "experiment": "pERK and pPKA expression by western blot in 3T3-L1 cells", "type": "cell-based", "conditions": "FIG. 85", "description": "(§1) In order to analyze the mechanism of lipolytic ability according to the HKFY derivative treatment in 3T3-L1 cells and WAT cells, the expression levels of pERK and pPKA were analyzed (FIGS. 85 and 86).\n(§2) Specifically, protein was purified from 3T3L-1 cells (Korea Cell Line Bank) and WAT (tissue culture using mice purchased from Central Lab. Animal Inc.) treated with the HKFY derivatives, and then each antibody for pERK, ERK, pPKA, and PKA expressed in mice was used, and the expression level of each protein due to the derivatives was measured through western blot."}, "[2]": {"test_system": "pERK and pPKA in WAT cells", "experiment": "pERK and pPKA expression by western blot in WAT", "type": "cell-based, mice", "conditions": "FIG. 86", "description": "as §1, §2"}, "db/db mice [3]": {"test_system": "db/db mice", "experiment": "glucose tolerance test in mouse model of diabetes mellitus disease", "type": "in vivo", "conditions": "db/db mice, 0.5, 1, 5 and 10 mg/kg subcutaneously, glucose 1.5 g/kg i.p. after 30 minutes", "description": "The glucose tolerance level in a mouse model of diabetes mellitus disease according to the HKFY derivative treatment was analyzed (FIG. 87).\nSpecifically, male db/db mice (5 to 7-week-old, Central Lab. Animal Inc.), which is a mouse model of diabetes mellitus disease, were fasted for 16 hours, and then HKFY-34 was administered subcutaneously at a concentration of 0.5, 1, 5 and 10 mg/kg, respectively. After 30 minutes, glucose (1.5 g/kg) was intraperitoneally administered. After 0, 15, 30, 45, 60, 90, 120 and 180 minutes, blood was collected from the tail of the mice, and the blood glucose was measured with a blood glucose meter (acc-check, Roche, Germany) to analyze the glucose tolerance."}, "db/db mice [4]": {"test_system": "db/db mice", "experiment": "blood insulin level in mouse model of diabetes mellitus disease (mouse ELISA)", "type": "in vivo", "description": "In addition, the blood insulin level was analyzed simultaneously with the glucose tolerance test for the mouse model of diabetes mellitus disease (FIG. 88).\nSpecifically, after 0, 15, 30, 60, 90, 120 and 180 minutes, blood was collected from the orbital veins of mice, and the insulin level in plasma was analyzed using mouse ELISA."}, "[5]": {"test_system": "C57BL6/J mice with high-fat feed (DIO)", "experiment": "glucose tolerance test in mouse model of obesity disease (DIO)", "type": "in vivo", "conditions": "FIG. 89", "description": "(§3) In addition, the glucose tolerance level and insulin level according to HKFY-34 treatment in a mouse model of obesity disease were analyzed (FIGS. 89 and 90).\n(§4) Specifically, in the glucose tolerance level and insulin level analysis experiment, the experiment was performed by changing the mouse model of diabetes mellitus disease into a mouse model of obesity disease (DIO), in which obesity was induced by providing male C57BL6/J mice (6 to 7-week-old, Central Lab. Animal Inc.) with a high-fat feed (60% fat chow) for 5-6 weeks."}, "[6]": {"test_system": "C57BL6/J mice with high-fat feed (DIO)", "experiment": "insulin level in mouse model of obesity disease (DIO)", "type": "in vivo", "conditions": "FIG. 90", "description": "as §3, §4"}, "db/db mice [7]": {"test_system": "db/db mice", "experiment": "drop in blood glucose level in mouse model of diabetes mellitus disease", "type": "in vivo", "description": "The drop in blood glucose level in a mouse model of diabetes mellitus disease according to the HKFY derivative treatment was analyzed (FIG. 92).\nSpecifically, HKFY-34 was subcutaneously administered at a concentration of 0.5, 1, 5 and 10 mg/kg, respectively, to male db/db mice (5 to 7-week-old), which is a mouse model of diabetes mellitus disease. After 0, 1, 2, 4, 6, 8, 12, 18 and 24 hours, blood was collected from the tail of the mice, and the blood glucose was measured with a blood glucose meter (acc-check, Roche, Germany) to confirm the anti-diabetic effect."}, "GPR39 [8]": {"molecular_target": "T1, GPR39 (Homo sapiens, UniProt O43194)", "T1 sequence (O43194 1-453)": "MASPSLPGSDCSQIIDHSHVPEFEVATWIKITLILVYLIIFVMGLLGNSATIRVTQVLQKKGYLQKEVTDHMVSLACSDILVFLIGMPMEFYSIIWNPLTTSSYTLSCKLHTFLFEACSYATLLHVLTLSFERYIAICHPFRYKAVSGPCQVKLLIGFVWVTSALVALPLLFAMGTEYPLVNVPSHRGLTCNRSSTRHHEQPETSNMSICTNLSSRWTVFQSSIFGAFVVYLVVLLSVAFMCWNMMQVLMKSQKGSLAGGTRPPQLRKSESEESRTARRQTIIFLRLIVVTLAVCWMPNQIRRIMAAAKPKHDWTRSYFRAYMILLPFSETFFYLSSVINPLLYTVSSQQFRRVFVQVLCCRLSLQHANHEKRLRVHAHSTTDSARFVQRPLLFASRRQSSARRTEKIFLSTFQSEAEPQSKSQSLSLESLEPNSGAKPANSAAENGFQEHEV", "experiment": "calcium influx assay system (aequorin) in CV-1 cells", "type": "cell-based", "design": "host or cells: CV-1 fibroblast cell line, lipofectamine transfection", "conditions": "CV-1 cells transfected with human GPR39, Gαq, 6 hours"}, "GPR39 [9]": {"molecular_target": "T1, GPR39", "experiment": "luciferase assay system (SRE luciferase reporter gene) for GPR39 in CV-1 cells", "quoted_text": "Specifically, the fibroblast cell line CV-1 (1×10^5 cells/ml, Korea Cell Line Bank) was cultured in a 96 well cell culture plate for 24 hours, and then treated with GPR39 inserted into adenovirus and SRE (serum response element) luciferase at 50 MOI (multiplicity of infection) and 25 MOI virus for 3 hours, respectively, and then cultured for 24 hours."}},
  "data": [
    {"smiles": "CCCCCCCC(=O)NCCCC[C@H](NC(=O)[C@@H](N)Cc1cn(C(c2ccccc2)c2ccccc2)cn1)C(=O)N[C@H](Cc1ccc(C)cc1)C(=O)N[C@@H](Cc1ccc(O)cc1)C(=O)O", "note": "[HKFY-34, ((R)-2-((S)-2-((S)-2-amino-3-(1-benzhydryl-1H-imidazol-4-yl)propanamido)-6-octanamidohexanamido)-3-(p-tolyl)propanoyl)-L-tyrosine]", "values": [
      {"measurement": "mRNA expression of Ins2", "setting": "Irs2 and Ins2; GPR39 siRNA treated group", "result": "hardly achieved"},
      {"measurement": "mRNA expression of Irs2", "setting": "Irs2 and Ins2; GPR39 siRNA treated group", "result": "hardly achieved"},
      {"measurement": "mRNA expression level of Ins2", "setting": "Irs2 and Ins2; RT-PCR, FIG. 77", "result": "increased"},
      {"measurement": "mRNA expression level of Irs2", "setting": "Irs2 and Ins2; RT-PCR, FIG. 77", "result": "increased"},
      {"measurement": "lipolytic ability", "setting": "3T3-L1 cells; HKFY-34 concentration 10 μM or higher", "result": "significantly increased"},
      {"measurement": "lipolytic ability", "setting": "3T3-L1 cells; by concentration, FIG. 84", "result": "increased in a concentration dependent manner"},
      {"measurement": "expression of pERK compared to ERK", "setting": "[1]", "result": "increased"},
      {"measurement": "expression of pPKA compared to PKA", "setting": "[1]", "result": "increased"},
      {"measurement": "expression of pERK compared to ERK", "setting": "[2]", "result": "increased"},
      {"measurement": "expression of pPKA compared to PKA", "setting": "[2]", "result": "increased"},
      {"measurement": "glucose tolerance", "setting": "db/db mice [3]", "result": "significant glucose tolerance in a concentration dependent manner"},
      {"measurement": "insulin secretion (plasma insulin level)", "setting": "db/db mice [4]; db/db mice, 0.5, 1, 5 and 10 mg/kg subcutaneously", "result": "increased in a concentration dependent manner"},
      {"measurement": "insulin secretion level", "setting": "db/db mice [4]; db/db mice, 5 and 10 mg/kg", "result": "significantly increased"},
      {"measurement": "glucose tolerance", "setting": "[5]", "result": "glucose tolerance in a concentration dependent manner"},
      {"measurement": "insulin secretion level", "setting": "[6]", "result": "increased"},
      {"measurement": "effect of drop in blood glucose level", "setting": "db/db mice [7]; db/db mice, 0.5, 1, 5 and 10 mg/kg subcutaneously, 0 to 24 hours", "result": "exhibited in a concentration-dependent manner"},
      {"measurement": "effect of drop in blood glucose", "setting": "db/db mice [7]; db/db mice, 5 and 10 mg/kg", "result": "significantly increased"},
      {"measurement": "Ca2+ influx assay ECmax (-fold induction over basal)", "setting": "GPR39 [8]", "result": "2.4 ± 4.59 -fold induction over basal"},
      {"measurement": "EC50", "setting": "GPR39 [8]; read-out: Ca2+ influx assay EC50", "result": "2.7 ± 0.5", "unit": "nM"},
      {"measurement": "EC50", "setting": "GPR39 [9]; EC50, CV-1 cells, GPR39 and SRE luciferase adenovirus, treated 6 hours, luminometer", "result": "7 ± 1", "unit": "nM"},
      {"measurement": "binding capacity and activity to the GPR39 receptor (in words)", "setting": "GPR39 [9]; FIG. 73 and Table 4, luciferase and calcium influx assay", "result": "excellent"},
      {"measurement": "EC50", "setting": "GPR39 [9]; Reporter gene assay EC50, Table 4, luciferase assay system", "result": "6.7 ± 0.7", "unit": "nM"},
      {"measurement": "ECmax value (in words)", "setting": "GPR39 [9]; comment on Table 3", "result": "high ECmax value"},
      {"measurement": "activity level for GPR39 (in words)", "setting": "GPR39 [9]; comment on Table 3", "result": "higher activity level than other HJKFY derivatives"},
      {"measurement": "activity level for GPR39 (in words)", "setting": "GPR39 [9]; comment on Table 3, listed as HIKFY-34", "result": "most excellent activity"}
    ]}
  ]
}
